From US4101676A, “Diphenylpropylamines to treat depression” (Beecham Group Limited, priority 1973, dated 1978)
Where a name gives a salt, the structure may show the parent alone.

Tests used:
reserpine hypothermia [1] = assay: Prevention of Reserpine Hypothermia; format: in vivo, mice (Carworth Europe male); conditions: mice, oral; for Δ^6: cumulative temperature difference from controls at 6 hours; for Δ^24: cumulative temperature difference from controls at 24 hours
Experimental: The method of Spencer [Antidepressant Drugs, 194 (1967) ] was used. Groups of ten mice are given oral doses of test compound 24 18 and 2 hours before an intravenous injection of reserpine base (Serpasil). Oral temperatures of the mice are taken immediately before administration of reserpine and then 2 4 6 and 24 hours afterwards.
Mean temperatures of groups given test compounds are compared with reserpinised controls using a Students t test. Compounds causing a significant difference at the level P < 0.001 are considered active. In order to quantify anti-reserpine activity cumulative temperature differences from controls at 6 hours and 24 hours (Δ^6 and Δ^24 ) are calculated.
(§1) Carworth Europe male mice are used for all experiments apart from that using the cat nictitating membrane and test compounds are administered orally as solutions in distilled water. Compounds for intravenous administration are dissolved in 0.9% saline apart from Reserpine which is dissolved in dilute acetic acid buffered to pH5. Unless otherwise stated, the dosing interval is one hour.
(§2) The Reserpine Prevention, Reserpine Reversal and Noradrenaline Uptake Inhibition tests were carried out as described in the previous Example. The Mydriasis tests was also as described in the previous Example but using 20 mg/kg doses of each compound after which a curve was plotted of percentage increase in pupil diameter vertus time and the percentage increase was integrated with respect to time for 0-120 minutes after dosing and the result expressed as a percentage.

reserpine hypothermia [2] = assay: Reversal of Reserpine Hypothermia; format: in vivo, mice (Carworth Europe male); conditions: mice, subcutaneous; for Δ^6: 6 hours; for Δ^24: 24 hours
Experimental: Seventeen hours later the oral temperatures of the mice are taken and various doses of test compound or vehicle given subcutaneously. Temperatures are taken 1, 2, 4 6 and 24 hours later and the results are analysed as in Test 1 (The subcutaneous route is used for convenience as the very depressed reserpinised mice cannot be reliably dosed orally).
as §1, §2

Noradrenaline uptake = assay: Inhibition of Noradrenaline Uptake in vitro (brain synaptosomes); format: biochemical, male Wistar rats
Experimental: (§3) Synaptosomes are isolated from the brains of male Wistar rats (150-170g.) and monamine uptake determined by the method of Snyder and Coyle (1968) [Synder S. H. and Coyle J. T. J. Pharmac. exp. Ther. 165 (1968) 78-86]. Uptake was determined over a ten minute period instead of the normal five minutes.
as §2

[3] = system: 5-Hydroxytryptamine uptake; assay: Inhibition of 5-Hydroxytryptamine Uptake in vitro (brain synaptosomes); format: biochemical, male Wistar rats
Experimental: as §3

[4] = system: pupil diameter (mydriasis, anticholinergic side effect); assay: Mydriatic Response in Mice (dose causing 200% increase in pupil size); format: in vivo
Experimental: Groups of five mice are pre-selected for uniformity of pupil diameter using a binocular microscope with a calibrated eye-piece. Pupil sizes are measured at various intervals after an intraperitoneal injection of test compound and at the peak time a curve plotted of percentage increase in pupil diameter versus log dose. […] Carworth Europe male mice are used for all experiments apart from that using the cat nictitating membrane and test compounds are administered orally as solutions in distilled water. […] Unless otherwise stated, the dosing interval is one hour.

[5] = target: T1, Guinea Pig Ileum (Cavia porcellus); assay: pA2 Determination on Guinea Pig Ileum (antagonism to Acetylcholine); conditions: in vitro, read-out: pA2 on Iillium (converted)
T1 construct: from tissue; host or cells: guinea pig ileum
Source text: It is thus a means of expressing anticholinergic activity which is independent of the dose of Acetylcholine and the piece of tissue used. The method used is similar to that of Schild, [Brit. J. Pharmacol. 14 (1959) 48] the tissue being bathed in Tyrode solution and a dose response curved for Acetylcholine being obtained.

[6] = mice, intraperitoneal, at peak time

T1 sequence (H0W1Z3 1-590): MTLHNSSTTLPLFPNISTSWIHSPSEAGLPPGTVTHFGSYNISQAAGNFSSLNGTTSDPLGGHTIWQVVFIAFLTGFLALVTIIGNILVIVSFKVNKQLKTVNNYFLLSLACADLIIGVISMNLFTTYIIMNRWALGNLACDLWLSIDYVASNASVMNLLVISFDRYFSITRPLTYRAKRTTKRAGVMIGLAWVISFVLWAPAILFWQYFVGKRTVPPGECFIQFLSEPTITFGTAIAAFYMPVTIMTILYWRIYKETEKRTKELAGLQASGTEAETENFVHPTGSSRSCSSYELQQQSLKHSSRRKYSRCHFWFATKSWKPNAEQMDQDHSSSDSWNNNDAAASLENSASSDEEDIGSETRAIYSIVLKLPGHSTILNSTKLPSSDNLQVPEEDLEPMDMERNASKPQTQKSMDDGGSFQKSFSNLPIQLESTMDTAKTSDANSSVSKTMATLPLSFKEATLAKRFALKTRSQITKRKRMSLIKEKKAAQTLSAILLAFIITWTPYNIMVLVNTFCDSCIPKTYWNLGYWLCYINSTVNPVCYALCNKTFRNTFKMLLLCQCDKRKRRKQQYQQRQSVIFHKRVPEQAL

In the case of `CC(=O)OC(CN(C)C)C(c1ccccc1)c1ccccc1` (stereo not drawn) [H COCH3 N(CH3)2, 2-Acetoxy-3-dimethylamino-1,1-diphenyl-propane], the “Δ^6” value (reserpine hypothermia [1]; 20 mg/kg) is reported as greater than 10 °C and the “Δ^24” value (reserpine hypothermia [1]; 20 mg/kg) is reported as greater than 10 °C.

In the case of `CCN(CC)CC(O)C(c1ccccc1)c1ccccc1` (stereo not drawn) [C2H5 C2H5 H H H HCl], the “Δ^6” value (reserpine hypothermia [1]; 30 mg/kg) is reported as 11 °C and the “Δ^24” value (reserpine hypothermia [1]; 30 mg/kg) is reported as 11 °C.

`CN(C)CCCN1c2ccccc2CCc2ccccc21` [Imipramine HCl, reference compound] was tested, and the “Δ^6” value (reserpine hypothermia [1]; 30 mg/kg) was 10 °C, the “Δ^24” value (reserpine hypothermia [1]; 30 mg/kg) was 17 °C and the “Δ^6” value (reserpine hypothermia [2]; 10 mg/kg) was 18 °C. The “Δ^24” value (reserpine hypothermia [2]; 10 mg/kg) was 18 °C, the “Inhibition of Monoamine Uptake NA (%)” value (Noradrenaline uptake; 10^-5 molar) was 85% and the “Inhibition of Monoamine Uptake NA (%)” value (Noradrenaline uptake; 10^-6 molar (Table 4)) was 56%. For the same molecule, the “Inhibition of Monoamine Uptake 5HT (%)” value ([3]; 10^-5 molar) was 90%, the “Inhibition of Monoamine Uptake 5HT (%)” value ([3]; 10^-6 molar) was 55% and the “Mydriasis-Dose to cause 200% effect” value [4, 6] was 18 mg/kg. For the same molecule, the Kb [5] was 0.001 µM.

With `CNCC(C)(O)C(c1ccccc1)c1ccccc1` (stereo not drawn) [CH3 H NHCH3, 3-(N-methylamino)-2-methyl-1,1-diphenyl-propan-2-ol] the “Δ^6” value (reserpine hypothermia [1]; 30 mg/kg) was 7 °C and the “Δ^24” value (reserpine hypothermia [1]; 30 mg/kg) was 13 °C.

For `CN(C)CCC=C1c2ccccc2CCc2ccccc21` [Amitriptyline hydrochloride, reference compound], the “Δ^6” value (reserpine hypothermia [1]; 30 mg/kg) was 12 °C, the “Δ^24” value (reserpine hypothermia [1]; 30 mg/kg) was 22 °C and the “Mydriasis-Dose to cause 200% effect” value ([4]; mouse, in vivo, ip) was 6 mg/kg.

In the case of `CNCC(O)C(c1ccccc1)c1ccc(C)cc1` (stereo not drawn) [CH3 H H H CH3 HCl, 3-N-methylamino-1-phenyl-1-p-tolyl-propan-2-ol], the “Δ^6” value (reserpine hypothermia [1]; 100 mg/kg) is reported as 6 °C and the “Δ^24” value (reserpine hypothermia [1]; 100 mg/kg) is reported as 6 °C.

With `OC(CN1CCOCC1)C(c1ccccc1)c1ccccc1` (stereo not drawn) [H H morpholino] the “Δ^6” value (reserpine hypothermia [1]; 100 mg/kg) was 10 °C and the “Δ^24” value (reserpine hypothermia [1]; 100 mg/kg) was 10 °C.

In the case of `CN(C)CC(O)C(c1ccccc1)c1ccccc1` (stereo not drawn) [CH3 CH3 H H H HBr, 3-Dimethylamino-1,1-diphenyl-propan-2-ol], the “Δ^6” value (reserpine hypothermia [1]; 20 mg/kg) is reported as 13 °C, the “Δ^24” value (reserpine hypothermia [1]; 20 mg/kg) is reported as 19 °C and the “Δ^6” value (reserpine hypothermia [2]; 20 mg/kg) is reported as 14 °C. For the same molecule, the “Δ^24” value (reserpine hypothermia [2]; 20 mg/kg) was 22 °C, the “Mydriasis-Dose to cause 200% effect” value [4, 6] was 41 mg/kg and the Kb [5] was 10 µM.

`CN(Cc1ccccc1)CC(O)C(c1ccccc1)c1ccccc1` (stereo not drawn) [CH2C6H5 CH3 H H H HCl, 3-(N-Benzyl-N-methylamino)-1,1-diphenyl-propan-2-ol] was tested, and the “Δ^6” value (reserpine hypothermia [1]; 30 mg/kg) was 10 °C and the “Δ^24” value (reserpine hypothermia [1]; 30 mg/kg) was 11 °C.

`CN(Cc1ccccc1)CC(C)(O)C(c1ccccc1)c1ccccc1` (stereo not drawn) [CH3 H N(CH3)CH2C6H5, 3-(N-Benzyl N-methylamino)-2-methyl-1,1-diphenyl-propan-2-ol] was tested, and the “Δ^6” value (reserpine hypothermia [1]; 100 mg/kg) was 6 °C and the “Δ^24” value (reserpine hypothermia [1]; 100 mg/kg) was 8 °C.
